From paper PMC12638379, “An innovative approach to development of new pyrazolylquinolin-2-one hybrids as dual EGFR and BRAF^V600E inhibitors” (Molecular Diversity, 2025)
Where two headings read alike, the source gives them in different places.

Columns and labels:
[1] = tested on: lung cancer (HOP-92) cell line; test: MTT antiproliferative assay, HOP-92; format: cell-based, human; details: for viability at 0.4 µM / viability at 1.6 µM / viability at 6.3 µM / viability at 25 µM / viability at 100 µM / IC50: Homo sapiens; for viability at 0.4 µM / viability at 1.6 µM / viability at 6.3 µM / viability at 25 µM / viability at 100 µM: HOP-92, HOP-92, MTT
Experimental: […]. […] See Appendix B.
After 24 h of culture incubation and supernatants discarded.

[2] = tested on: caspase-3; test: Caspase-3 level in HOP-92 cells (RT-PCR fold change); format: cell-based, human; details: for Gene Expression FLD 2^ ΔΔCT Casp3: vs GAPDH, E=1.869, control = 1
From the text: (§1) In the depicted findings, compound 4e affected Bcl-2, caspase-3, and caspase-9, increasing the expression of caspase-3/9 and decreasing the expression of Bcl-2, confirming the apoptotic status.
(§2) Researcher : Dr.Mohamed Hawas email: mohhawwas80@gmail.com mob. 01151345909 Assay : Cell Cycle Analysis mohamedhassan.pharm.ast@azhr.edu.eg Assay : RT-PCR Samples : 02 SamplesCell lines : ----Ref. : ----Date : 12-06-2023Reader : Rotorgene RT- PCR system Kit used : Qiagen RNA extraction/BioRad syber green PCR MMXSolvent : DMSOAssay samples : Cell Lysate
Allow all reagents to reach room temperature before use. Gently mix all liquidreagents prior to use. Determine the number of 8-well strips needed for the assay. Insert these in the frame(s) for current use. Add 100 μl of the Standard Diluent Buffer to the zero standard wells. Well(s) reserved for chromogen blank should be left empty. Add 100 μl of standards and controls or diluted samples to the appropriate microtiter wells. The sample dilution chosen should be optimized for each experimental system. Tap gently on side of plate to mix. Cover wells with plate cover and incubate for 2 hours at room temperature. Thoroughly aspirate or decant solution from wells and discard the liquid, Wash wells 4 times. Pipette 100 μl of Caspase-3 (Active) Detection Antibody solution into each well except the chromogen blank(s). Tap gently on the side of the plate to mix. Cover plate with plate cover and incubate for 1 hour at room temperature. Thoroughly aspirate or decant solution from wells and discard the liquid, Wash wells 4 times. Add 100 μl Anti-Rabbit IgG HRP Working Solution to each well except the chromogen blank(s). Prepare the working dilution as described in Preparing IgG HRP. Cover wells with the plate cover and incubate for 30 minutes at room temperature. Thoroughly aspirate or decant solution from wells and discard the liquid. Wash wells 4 times. Add 100 μl of Stabilized Chromogento each well. The liquid in the wells will begin to turn blue. Incubate for 30 minutes at room temperature and in the dark. The incubation time for chromogen substrate is often determined by the microtiter platereader used. Many plate readers have the capacity to record a maximum optical density (O.D.) of 2.0. The O.D. values should be monitored and the substrate reaction stopped before the O.D. of the positive wells exceeds the limits of the instrument. The O.D. values at 450 nm can only be read after the Stop Solution has been added to each well. […] Read the absorbance of each well at 450 nm having blanked the plate reader against a chromogen blank composed of 100 μl each of StabilizedChromogenand Stop Solution. Read the plate within 2 hours after adding the Stop Solution. […] Read the concentrations for unknown samples and controls from the standard curve. […]

[3] = tested on: caspase-9; test: Caspase-9 level in HOP-92 cells (RT-PCR fold change); format: cell-based, human; details: for Gene Expression FLD 2^ ΔΔCT Casp9: vs GAPDH, E=1.869, control = 1
From the text: as §1, §2
Cells were obtained from American Type Culture Collection, cells were grown in RPMI 1640 containing 10% fetal bovine serum at 37°C, stimulated with the compounds to be tested […], and lysed with Cell Extraction Buffer. This lysate was diluted in Standard Diluent Buffer over the range of the assay and measured for human active caspase-8 or 9 content. […] The absorbance of each microwell was read on a spectro-photometer at 450 nm. A standard curve is prepared from 7 human Caspases standard dilutions and human Caspase-8 or 9 concentration determined.

[4] = tested on: Bcl-2; test: Bcl-2 level in HOP-92 cells (RT-PCR fold change); format: cell-based, human; details: for Gene Expression FLD 2^ ΔΔCT bcl2: vs GAPDH, E=1.869, control = 1
From the text: as §1, §2
Mix all reagents thoroughly without foaming before use. Wash the microwells twice with approximately 300 μL Wash Buffer per well with thorough aspiration of microwell contents between washes. Take caution not to scratch the surface of the microwells. After the last wash, empty the wells and tap microwell strips on absorbent pad or paper towel to remove excess Wash Buffer. Use the microwell strips immediately after washing or place upside down on a wet absorbent paper for not longer than 15 minutes. […] Add 100 μL of Sample Diluent in duplicate to all standard wells and to the blank wells. Prepare standard (1:2 dilution) in duplicate ranging from 32 ng/mL to 0.5 ng/mL. Add 100 μL of Sample Diluent, in duplicate, to the blank wells. Add 80 μL of Sample Diluent, in duplicate, to the sample wells. Add 20 μL of each Sample, in duplicate, to the designated wells. Add 50 μL of diluted biotin-conjugate to all wells, including the blank wells. […] The point, at which the substrate reaction is stopped, is often determined by the ELISA reader. Many ELISA readers record absorbance only up to 2.0 O.D. Therefore, the color development within individual microwells must be watched by the person running the assay and the substrate reaction stopped before positive wells are no longer properly detectable. […] Results must be read immediately after the Stop Solution is added or within one hour if the microwell strips are stored at 2 - 8°C in the dark. Read absorbance of each microwell on a spectrophotometer using 450 nm as the primary wave length.

[5] = tested on: normal cell line WI-38; details: human, 0.4 µM
[6] = in vitro; details: human, % viability
[7] = HOP-92, MTT, read-out: Antiproliferative activity IC50 ± SEM, HOP-92

C/C(=N\Nc1ccc(C(=O)O)cc1)c1cnn(-c2cc(=O)[nH]c3ccccc23)c1C [Compound 4f, (E)-4-(2-(1-(5-methyl-1-(2-oxo-1,2-dihydroquinolin-4-yl)-1H-pyrazol-4-yl)ethylidene) hydrazineyl)benzoic acid]
% viability ([1]; HOP-92, MTT, 0.4uM, listed as ws6, 0.4 µM): 83.3554% | % viability ([1]; HOP-92, MTT, 1.6uM, listed as ws6, 1.6 µM): 74.4032% | % viability ([1]; HOP-92, MTT, 6.3uM, listed as ws6, 6.3 µM): 64.3236% | % viability ([1]; HOP-92, MTT, 100uM, listed as ws6, 100 µM): 35.3448% | viability at 0.4 µM ([1]; 0.4uM, read-out: % viability): 83.4% | viability at 1.6 µM ([1]; 1.6uM, read-out: % viability): 74.4% | viability at 6.3 µM ([1]; 6.3uM, read-out: % viability): 64.3% | viability at 25 µM ([1]; 25uM, read-out: % viability): 51.8% | viability at 100 µM ([1]; 100uM, read-out: % viability): 35.3% | IC50 [1, 7]: 24.9 ± 1.9 µM

C/C(=N\Nc1ccc(S(N)(=O)=O)cc1)c1cnn(-c2cc(=O)[nH]c3ccc(Br)cc23)c1C [Compound 4e, (E)-4-(2-(1-(1-(6-bromo-2-oxo-1,2-dihydroquinolin-4-yl)-5-methyl-1H-pyrazol-4-yl)ethylidene)hydrazineyl)benzenesulfonamide]
% viability ([1]; HOP-92, MTT, 0.4uM, listed as Ws5, 0.4 µM): 71.413% | % viability ([1]; HOP-92, MTT, 1.6uM, listed as Ws5, 1.6 µM): 60.375% | % viability ([1]; HOP-92, MTT, 6.3uM, listed as Ws5, 6.3 µM): 47.848% | % viability ([1]; HOP-92, MTT, 25uM, listed as Ws5, 25 µM): 34.437% | viability at 0.4 µM ([1]; 0.4uM, read-out: % viability): 71.4% | viability at 1.6 µM ([1]; 1.6uM, read-out: % viability): 60.4% | viability at 6.3 µM ([1]; 6.3uM, read-out: % viability): 47.9% | viability at 25 µM ([1]; 25uM, read-out: % viability): 34.4% | viability at 100 µM ([1]; 100uM, read-out: % viability): 26.5% | IC50 ([1]; HOP-92, HOP-92, concentration used in RT-PCR, read-out: IC50): 4.98 µM | IC50 ([1]; HOP-92, HOP-92, concentration used in apoptosis assay, read-out: Conc IC50): 4.98 µM | IC50 ([1]; HOP-92, HOP-92, concentration used in cell cycle analysis, read-out: IC50): 4.98 µM | IC50 [1, 7]: 4.98 ± 0.2 µM | RT-PCR Fold Change FLD Casp3 ([2]; control = 1): 4.716 | Gene Expression FLD 2^ ΔΔCT Casp3 [2]: 4.7162 | RT-PCR Fold Change Casp-3 ([2]; vs untreated control): 4.716 fold | RT-PCR Fold Change FLD Casp9 ([3]; control = 1): 3.082 | Gene Expression FLD 2^ ΔΔCT Casp9 [3]: 3.0825 | RT-PCR Fold Change Casp-9 ([3]; vs untreated control): 3.082 fold | RT-PCR Fold Change FLD Bcl2 ([4]; control = 1): 0.299 | Gene Expression FLD 2^ ΔΔCT bcl2 [4]: 0.2991

CN[C@@H]1C[C@H]2O[C@@](C)([C@@H]1OC)n1c3ccccc3c3c4c(c5c6ccccc6n2c5c31)C(=O)NC4 [Staurosporine, reference compound]
% viability ([1]; HOP-92, MTT, 0.4uM, listed as STA): 69.37% | % viability ([1]; HOP-92, MTT, 1.6uM, listed as STA): 61.2% | % viability ([1]; HOP-92, MTT, 6.3uM, listed as STA): 43.16% | % viability ([1]; HOP-92, MTT, 100uM, listed as STA): 17.16% | viability at 0.4 µM ([1]; 0.4uM): 69.4% | viability at 1.6 µM ([1]; 1.6uM): 61.2% | viability at 6.3 µM ([1]; 6.3uM): 43.2% | viability at 25 µM ([1]; 25uM): 24.7% | viability at 100 µM ([1]; 100uM): 17.2% | IC50 [1, 7]: 3.17 ± 0.19 µM | IC50 ([1]; HOP-92, concentration used in RT-PCR, read-out: IC50): 3.17 µM | Gene Expression FLD 2^ ΔΔCT Casp3 [2]: 6.9067 | Gene Expression FLD 2^ ΔΔCT Casp9 [3]: 5.5143 | Gene Expression FLD 2^ ΔΔCT bcl2 [4]: 0.3265 | % viability [5]: 84.55% | viability at 0.4 µM [6]: 84.6% | viability at 6.3 µM [6]: 56.2% | viability at 25 µM [6]: 46.8% | viability at 1.6 µM ([6]; WI38, 1.6uM (log conc. 0.19)): 68.1% | viability at 100 µM ([6]; WI38, 100uM (log conc. 2)): 37.4%

C/C(=N\Nc1ccc(S(N)(=O)=O)cc1)c1cnn(-c2cc(=O)[nH]c3ccc(Cl)cc23)c1C [Compound 4d, (E)-4-(2-(1-(1-(6-chloro-2-oxo-1,2-dihydroquinolin-4-yl)-5-methyl-1H-pyrazol-4-yl)ethylidene)hydrazineyl)benzenesulfonamide]
% viability ([1]; HOP-92, MTT, 0.4uM, listed as Ws4, 0.4 µM): 85.21% | % viability ([1]; HOP-92, MTT, 1.6uM, listed as Ws4, 1.6 µM): 75.93% | % viability ([1]; HOP-92, MTT, 6.3uM, listed as Ws4, 6.3 µM): 64.52% | % viability ([1]; HOP-92, MTT, 25uM, listed as Ws4, 25 µM): 52.12% | % viability ([1]; HOP-92, MTT, 100uM, listed as Ws4, 100 µM): 42.18% | viability at 0.4 µM ([1]; 0.4uM, read-out: % viability): 85.2% | viability at 1.6 µM ([1]; 1.6uM, read-out: % viability): 75.9% | viability at 6.3 µM ([1]; 6.3uM, read-out: % viability): 64.5% | viability at 25 µM ([1]; 25uM, read-out: % viability): 52.1% | viability at 100 µM ([1]; 100uM, read-out: % viability): 42.2% | IC50 [1, 7]: 36.5 ± 1.46 µM

C/C(=N\Nc1ccc(C(=O)O)cc1)c1cnn(-c2cc(=O)[nH]c3ccc(C)cc23)c1C [Compound 4g, (E)-4-(2-(1-(5-methyl-1-(6-methyl-2-oxo-1,2-dihydroquinolin-4-yl)-1H-pyrazol-4-yl)ethylidene)hydrazineyl)benzoic acid]
% viability ([1]; HOP-92, MTT, 25uM, listed as Ws7, 25 µM): 48.02% | % viability ([1]; HOP-92, MTT, 100uM, listed as Ws7, 100 µM): 33.71% | viability at 0.4 µM ([1]; 0.4uM, read-out: % viability): 78% | viability at 1.6 µM ([1]; 1.6uM, read-out: % viability): 67% | viability at 6.3 µM ([1]; 6.3uM, read-out: % viability): 56.5% | viability at 25 µM ([1]; 25uM, read-out: % viability): 48% | viability at 100 µM ([1]; 100uM, read-out: % viability): 33.7% | IC50 [1, 7]: 14.7 ± 0.66 µM
